# Assay results from patent US20200024278A1, “COMPOSITION COMPRISING ANTIBIOTIC COMPOUND AND AN HETEROCYCLIC COMPOUND AND THEIR USE IN PREVENTING OR TREATING BACTERIAL INFECTIONS” (MUTABILIS, priority 2016, published 2020).
# Key:
# Experiment in all cases: MIC, broth microdilution (CLSI), substance alone or ATB combined with compound at 4 or 8 μg/mL
# SPN 49619 = type: cell-based, S. pneumoniae; conditions: SPN 49619; for MIC ATB combined with Example: Example @4 μg/ml; for MIC ATB combined with Example compound: compound @4 μg/ml
# Procedure, shortened: (§1)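 Antibiotic MICs were determined in presence of fixed compound at 4 or 8 μg/mL, and compound MICs alone, by visual growth inhibition. Inoculum 5·10^5 CFU/mL in ca-MHB, incubated 35 °C for 16-20 h per CLSI-M7-A7. Glucose-6-phosphate (25 μg/ml) added when fosfomycin was tested.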
# ECL P99 = type: cell-based, E. cloacae; conditions: ECL P99; for MIC ATB combined with Example: Example @4 μg/ml
# Procedure, shortened: as §1
# ABA UFR152 = type: cell-based, A. baumannii; conditions: Acinetobacter baumannii, substance alone, read-out: MIC
# Procedure, shortened: as §1
# ABA UFR156 = type: cell-based, A. baumannii; conditions: Acinetobacter baumannii, substance alone, read-out: MIC
# Procedure, shortened: as §1
# ECO 190317 = type: cell-based, E. coli; conditions: ECO 190317; for MIC ATB combined with Example: Example @4 μg/ml
# Procedure, shortened: as §1
# ECO UFR39 = type: cell-based, E. coli; conditions: ECO UFR39; for MIC ATB combined with Example: Example @4 μg/ml; for MIC ATB combined with Example compound: compound @4 μg/ml
# Procedure, shortened: as §1
# SAU 29213 = type: cell-based, S. aureus; conditions: for MIC ATB combined with Example / MIC ATB combined with Example compound: SAU 29213; for MIC ATB combined with Example: Example @4 μg/ml; for MIC ATB combined with Example compound: compound @4 μg/ml
# Procedure, shortened: as §1
# KPN 6299 = type: cell-based, K. pneumoniae; conditions: for MIC ATB combined with Example: Example @4 μg/ml
# Procedure, shortened: as §1
# KPN BAA-1898 = type: cell-based, K. pneumoniae; conditions: KPN BAA-1898; for MIC ATB combined with Example: Example @4 μg/ml
# Procedure, shortened: as §1
# KPN UFR42 = type: cell-based, K. pneumoniae; conditions: KPN UFR42; for MIC ATB combined with Example: Example @4 μg/ml; for MIC ATB combined with Example compound: compound @4 μg/ml
# Procedure, shortened: as §1
# PAE UFR48 = type: cell-based, P. aeruginosa; conditions: PAE UFR48; for MIC ATB combined with Example: Example @4 μg/ml; for MIC ATB combined with Example compound: compound @4 μg/ml
# Procedure, shortened: as §1
# PAE 105250 = type: cell-based, P. aeruginosa; conditions: PAE 105250; for MIC ATB combined with Example: Example @4 μg/ml; for MIC ATB combined with Example compound: compound @4 μg/ml
# Procedure, shortened: as §1
# PAE UFR90 = type: cell-based, P. aeruginosa; conditions: PAE UFR90; for MIC ATB combined with Example: Example @4 μg/ml; for MIC ATB combined with Example compound: compound @4 μg/ml
# Procedure, shortened: as §1
# [1] = Escherichia coli, substance alone, read-out: MIC
# [2] = Pseudomonas aeruginosa, substance alone, read-out: MIC
structure (smiles),measurement,setting,value
"O=C1N2CC(n3cccn3)=C[C@H](C2)N1OS(=O)(=O)[O-].[Na+] [Example 15, sodium [(5R)-7-oxo-3-pyrazol-1-yl-1,6-diazabicyclo[3.2.1]oct-3-en-6-yl] sulfate]",MIC ATB combined with Example,SPN 49619; ATB ATM,>32 µg/mL
same,MIC ATB combined with Example,SPN 49619; ATB FEP,0.063 µg/mL
same,MIC ATB combined with Example,SPN 49619; ATB FOS,16 µg/mL
same,MIC ATB combined with Example,SPN 49619; ATB MEM,<=0.031 μg/mL
same,MIC ATB combined with Example,SPN 49619; ATB PIP,0.5 µg/mL
same,MIC ATB combined with Example compound,SPN 49619; MIC of CIP,0.25 µg/mL
same,MIC ATB combined with Example compound,SPN 49619; MIC of CLI,0.031 µg/mL
same,MIC ATB combined with Example compound,SPN 49619; MIC of CPO,<=0.031 μg/mL
same,MIC ATB combined with Example compound,SPN 49619; MIC of DAP,0.125 µg/mL
same,MIC ATB combined with Example compound,SPN 49619; MIC of ERY,0.063 µg/mL
same,MIC ATB combined with Example compound,SPN 49619; MIC of LZD,0.25 µg/mL
same,MIC ATB combined with Example compound,SPN 49619; MIC of RIF,0.0078 µg/mL
same,MIC ATB combined with Example compound,SPN 49619; MIC of SYN,0.5 µg/mL
same,MIC ATB combined with Example compound,SPN 49619; MIC of VAN,0.125 µg/mL
same,MIC,"SPN 49619; Streptococcus pneumoniae, substance alone, read-out: MIC",8 µg/mL
same,MIC ATB combined with Example,ECL P99; ATB ATM,<0.031 µg/mL
same,MIC ATB combined with Example,ECL P99; ATB FEP,<0.031 µg/mL
same,MIC ATB combined with Example,ECL P99; ATB FOS,<=0.125 μg/mL
same,MIC ATB combined with Example,ECL P99; ATB MEM,<0.031 µg/mL
same,MIC ATB combined with Example,ECL P99; ATB PIP,<0.031 µg/mL
same,MIC,"ECL P99; Enterobacter cloacae, substance alone, read-out: MIC",2 µg/mL
same,MIC ATB combined with Example compound,"ECL P99; MIC of CIP, compound @4 μg/ml",<=0.031 μg/mL
same,MIC,ABA UFR152,> 32 µg/mL
same,MIC,ABA UFR156,> 32 µg/mL
same,MIC ATB combined with Example,ECO 190317; ATB ATM,<0.031 µg/mL
same,MIC ATB combined with Example,ECO 190317; ATB FEP,<0.031 µg/mL
same,MIC ATB combined with Example,ECO 190317; ATB FOS,<0.125 µg/mL
same,MIC ATB combined with Example,ECO 190317; ATB MEM,<0.031 µg/mL
same,MIC ATB combined with Example,ECO 190317; ATB PIP,<0.031 µg/mL
same,MIC,ECO 190317; [1],1 µg/mL
same,MIC ATB combined with Example compound,"ECO 190317; MIC of CIP, compound @4 μg/ml",<0.031 µg/mL
same,MIC ATB combined with Example,ECO UFR39; ATB ATM,<0.031 µg/mL
same,MIC ATB combined with Example,ECO UFR39; ATB FEP,<0.031 µg/mL
same,MIC ATB combined with Example,ECO UFR39; ATB FOS,<=0.125 μg/mL
same,MIC ATB combined with Example,ECO UFR39; ATB MEM,<0.031 µg/mL
same,MIC ATB combined with Example,ECO UFR39; ATB PIP,<0.031 µg/mL
same,MIC,ECO UFR39; [1],2 µg/mL
same,MIC ATB combined with Example compound,ECO UFR39; MIC of CIP,<=0.031 μg/mL
same,MIC ATB combined with Example compound,ECO UFR39; MIC of CPO,<=0.031 μg/mL
same,MIC ATB combined with Example,SAU 29213; ATB ATM,>32 µg/mL
same,MIC ATB combined with Example,SAU 29213; ATB FEP,0.5 µg/mL
same,MIC ATB combined with Example,SAU 29213; ATB FOS,0.25 µg/mL
same,MIC ATB combined with Example,SAU 29213; ATB MEM,<=0.031 μg/mL
same,MIC ATB combined with Example,SAU 29213; ATB PIP,0.5 µg/mL
same,MIC ATB combined with Example compound,SAU 29213; MIC of CIP,<=0.031 μg/mL
same,MIC ATB combined with Example compound,SAU 29213; MIC of CLI,<0.0010 µg/mL
same,MIC ATB combined with Example compound,SAU 29213; MIC of CPO,0.063 µg/mL
same,MIC ATB combined with Example compound,SAU 29213; MIC of DAP,<=0.0020 μg/mL
same,MIC ATB combined with Example compound,SAU 29213; MIC of ERY,<0.0020 µg/mL
same,MIC ATB combined with Example compound,SAU 29213; MIC of LZD,0.016 µg/mL
same,MIC ATB combined with Example compound,SAU 29213; MIC of RIF,0.0039 µg/mL
same,MIC ATB combined with Example compound,SAU 29213; MIC of SYN,0.063 µg/mL
same,MIC ATB combined with Example compound,SAU 29213; MIC of VAN,0.5 µg/mL
same,MIC,"SAU 29213; Staphylococcus aureus, substance alone, SAU 29213 (MSSA 29213), read-out: MIC",4 µg/mL
same,MIC ATB combined with Example,KPN 6299; ATB ATM,<0.031 µg/mL
same,MIC ATB combined with Example,KPN 6299; ATB FEP,<=0.25 μg/mL
same,MIC ATB combined with Example,KPN 6299; ATB FOS,<=0.125 μg/mL
same,MIC ATB combined with Example,KPN 6299; ATB MEM,<0.031 µg/mL
same,MIC ATB combined with Example,KPN 6299; ATB PIP,<0.031 µg/mL
same,MIC ATB combined with Example compound,"KPN 6299; MIC of CIP, compound @4 μg/ml",0.063 µg/mL
same,MIC ATB combined with Example,KPN BAA-1898; ATB ATM,<0.031 µg/mL
same,MIC ATB combined with Example,KPN BAA-1898; ATB FEP,<0.031 µg/mL
same,MIC ATB combined with Example,KPN BAA-1898; ATB FOS,0.25 µg/mL
same,MIC ATB combined with Example,KPN BAA-1898; ATB MEM,<0.031 µg/mL
same,MIC ATB combined with Example,KPN BAA-1898; ATB PIP,<0.031 µg/mL
same,MIC,"KPN BAA-1898; Klebsiella pneumoniae, BAA1898, substance alone, read-out: MIC",4 µg/mL
same,MIC ATB combined with Example compound,"KPN BAA-1898; MIC of CIP, compound @4 μg/ml",<=0.031 μg/mL
same,MIC ATB combined with Example,KPN UFR42; ATB ATM,<0.031 µg/mL
same,MIC ATB combined with Example,KPN UFR42; ATB FEP,<0.031 µg/mL
same,MIC ATB combined with Example,KPN UFR42; ATB FOS,<=0.125 μg/mL
same,MIC ATB combined with Example,KPN UFR42; ATB MEM,<0.031 µg/mL
same,MIC ATB combined with Example,KPN UFR42; ATB PIP,<0.031 µg/mL
same,MIC,"KPN UFR42; Klebsiella pneumoniae, substance alone, read-out: MIC",4 µg/mL
same,MIC ATB combined with Example compound,KPN UFR42; MIC of CIP,>32 µg/mL
same,MIC ATB combined with Example compound,KPN UFR42; MIC of CPO,<=0.031 μg/mL
same,MIC ATB combined with Example,PAE UFR48; ATB ATM,8 µg/mL
same,MIC ATB combined with Example,PAE UFR48; ATB FEP,32 µg/mL
same,MIC ATB combined with Example,PAE UFR48; ATB FOS,32 µg/mL
same,MIC ATB combined with Example,PAE UFR48; ATB MEM,0.5 µg/mL
same,MIC ATB combined with Example,PAE UFR48; ATB PIP,32 µg/mL
same,MIC ATB combined with Example compound,PAE UFR48; MIC of CIP,4 µg/mL
same,MIC ATB combined with Example compound,PAE UFR48; MIC of CPO,>32 µg/mL
same,MIC,PAE UFR48; [2],> 32 µg/mL
same,MIC ATB combined with Example,PAE 105250; ATB ATM,8 µg/mL
same,MIC ATB combined with Example,PAE 105250; ATB FEP,8 µg/mL
same,MIC ATB combined with Example,PAE 105250; ATB FOS,>128 µg/mL
same,MIC ATB combined with Example,PAE 105250; ATB MEM,2 µg/mL
same,MIC ATB combined with Example,PAE 105250; ATB PIP,32 µg/mL
same,MIC ATB combined with Example compound,PAE 105250; MIC of CIP,0.125 µg/mL
same,MIC ATB combined with Example compound,PAE 105250; MIC of CPO,16 µg/mL
same,MIC,PAE 105250; [2],> 32 µg/mL
same,MIC ATB combined with Example,PAE UFR90; ATB ATM,4 µg/mL
same,MIC ATB combined with Example,PAE UFR90; ATB FEP,2 µg/mL
same,MIC ATB combined with Example,PAE UFR90; ATB FOS,8 µg/mL
same,MIC ATB combined with Example,PAE UFR90; ATB MEM,1 µg/mL
same,MIC ATB combined with Example,PAE UFR90; ATB PIP,16 µg/mL
same,MIC ATB combined with Example compound,PAE UFR90; MIC of CIP,1 µg/mL
same,MIC ATB combined with Example compound,PAE UFR90; MIC of CPO,4 µg/mL
same,MIC,PAE UFR90; [2],> 32 µg/mL
